{"source": "patent US11059901B2", "about": "“Compositions and methods related to xCT antibodies” (AGIL VAX, INC., priority 2017, dated 2021)", "origin": "cited, not measured here", "key": {"xCT": {"biological_target": "T1, xCT (Homo sapiens, UniProt Q9UPY5)", "T1 sequence (Q9UPY5 1-501)": "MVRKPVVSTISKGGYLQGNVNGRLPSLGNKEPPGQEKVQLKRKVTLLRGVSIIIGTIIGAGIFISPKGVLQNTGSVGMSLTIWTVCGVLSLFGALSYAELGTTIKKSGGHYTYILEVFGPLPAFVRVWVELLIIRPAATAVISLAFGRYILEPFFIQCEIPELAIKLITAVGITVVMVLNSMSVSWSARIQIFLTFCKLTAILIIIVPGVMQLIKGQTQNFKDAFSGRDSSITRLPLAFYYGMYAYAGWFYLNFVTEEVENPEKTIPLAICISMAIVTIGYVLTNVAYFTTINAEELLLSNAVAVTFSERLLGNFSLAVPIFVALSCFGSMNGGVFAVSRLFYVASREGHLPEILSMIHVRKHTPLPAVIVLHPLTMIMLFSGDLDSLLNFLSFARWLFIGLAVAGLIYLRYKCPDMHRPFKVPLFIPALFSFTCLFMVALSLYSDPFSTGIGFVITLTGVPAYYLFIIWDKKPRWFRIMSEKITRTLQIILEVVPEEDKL", "T1 sequence (P08195 1-529 partner)": "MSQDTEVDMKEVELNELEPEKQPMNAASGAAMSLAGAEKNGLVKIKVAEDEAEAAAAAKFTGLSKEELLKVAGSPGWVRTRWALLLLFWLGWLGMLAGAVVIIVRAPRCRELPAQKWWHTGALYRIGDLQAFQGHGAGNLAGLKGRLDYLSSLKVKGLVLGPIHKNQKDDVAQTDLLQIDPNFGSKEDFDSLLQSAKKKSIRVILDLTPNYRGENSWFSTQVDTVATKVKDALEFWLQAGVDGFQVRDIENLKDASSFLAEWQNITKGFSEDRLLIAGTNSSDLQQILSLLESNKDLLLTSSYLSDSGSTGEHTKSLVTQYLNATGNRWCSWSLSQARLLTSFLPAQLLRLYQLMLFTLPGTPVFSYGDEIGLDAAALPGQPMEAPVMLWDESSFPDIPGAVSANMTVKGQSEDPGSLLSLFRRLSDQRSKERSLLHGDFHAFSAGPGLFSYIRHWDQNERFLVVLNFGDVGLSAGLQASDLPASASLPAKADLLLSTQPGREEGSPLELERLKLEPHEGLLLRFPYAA"}, "[1]": {"settings": "under physiological conditions"}}, "data": [{"smiles": "O=C(O)c1cc(/N=N/c2ccc(S(=O)(=O)Nc3ccccn3)cc2)ccc1O", "note": "[SASP, sulfasalazine]", "values": [{"measurement": "metastatic foci", "setting": "xCT; animal models of breast cancer metastasis", "value": "significant decreases"}, {"measurement": "frequency of CSC", "setting": "xCT; in vivo", "value": "reductions"}, {"measurement": "solubility", "setting": "[1]", "value": "insoluble"}, {"measurement": "stability", "setting": "[1]", "value": "labile"}]}]}
